According to PMC7214591, “Biotransformation of 5-hydroxymethylfurfural into 2,5-dihydroxymethylfuran by Ganoderma sessile and toxicological assessment of both compounds” (AMB Express, 2020):

Tests used:
[1] = Cytotoxicity test, CCK-8, 24 h; type: cell-based; conditions: human, HCT-8 cells
Description: (§1) Cell lines HCT-8 (3111C0001CCC000104) and A549 (3131C0001000700150) were obtained from National Infrastructure of Cell Line Resource (Beijing, China). SGC-7901 cell line was purchased from Suer Shengwu (Shanghai, China). All cells maintained in a humidified atmosphere at 37 °C and 5% CO2 in RPMI 1640 supplemented with 10% FBS and 1% Penicillin–Streptomycin solution. Cells were seeded in 96-well plates at a density of 8 * 10^3 cells per well and then incubated with various concentrations of 5-HMF and DHMF (Additional file 2: Table S2) for 24 h, respectively. Subsequently, culture supernatant was removed. HCT-8 cells were incubated in 100 μL fresh basal medium and 10 μL CCK-8 solution at 37 ℃ for 2 h. The optical density (OD) value of each well was measured at 450 nm using spectrophotometer (Multiskan Go 1510, Thermo, US); A549 and SGC-7901 cells were incubated in 100 μL MTT solution (1 mg/mL) at 37 ℃ for 4 h. Subsequently, the liquid was removed and dissolved the formazan with 150 μL DMSO, and the OD value was measured at 490 nm. Cell viability was given in a percentage of the control group. All data repeated for three times.

[2] = Cytotoxicity test, MTT, 24 h; type: cell-based; conditions: human
Description: as §1

[3] = system: Female Sprague–Dawley rats; assay: Acute oral toxicity assessment (OECD 423)
Description: The temperature in the experimental animal room was 22 ± 1 °C and the relative humidity was 60% ± 5%, additionally, lighting conditions was 12-h light/dark cycle.
Twenty-four rats were randomly divided into five groups. Six rats were in the control group as well as the high-dose groups, and three rats were in the low-dose groups. Before the experiment, all rats needed to be […] overnight. Briefly, the control group received distilled water while experimental groups were orally treated with test compounds at a single dose of 300 mg/kg 5-HMF, 300 mg/kg DHMF, 2000 mg/kg 5-HMF, and 2000 mg/kg DHMF, respectively. The animals were monitored periodically during the first 24 h, especially the opening 30 min and 4 h, after drug oral treatment for any signs of toxicity. The rats were further observed for 14 days. Moreover, the body weight was measured at the first and last day. At the end of experiment, all rats were anaesthetized and their brains, hearts, lungs, livers, kidneys, and spleens were collected, weighed and observed macroscopically.

[4] = system: mice; parameters: method as in Bauer Marinovic et al. [2012]; conditions: dose up to 536 mg/kg, drinking water for 12 weeks, ref Bauer Marinovic et al. [2012]; cited from earlier work
[5] = system: human skin fibroblast cells; parameters: method as in Frade et al. [2014]; conditions: ref Frade et al. [2014]; cited from earlier work
[6] = rats, 300 mg/kg single oral dose, after 14 days, n = 3
[7] = rats, 2000 mg/kg single oral dose, after 14 days, n = 6

O=Cc1ccc(CO)o1 [5-HMF, 5-hydroxymethylfurfural]
IC50 at 24 h [1]: 9.94 mM | IC50 at 24 h ([2]; A549 cells): 7.14 mM | IC50 at 24 h ([2]; SGC-7901 cells): 8.42 mM | Abnormal behaviours ([3]; female, Sprague-Dawley, rat, in vivo, po, 300 mg/kg): During the first 30 min, all rats became quitter and slightly weaker than the control, and returned to normal within 1 h | Abnormal behaviours ([3]; female, Sprague-Dawley, rat, in vivo, po, 2000 mg/kg): Rat numbered 1 emerged convulsions, lethargy, convulsions, and limb weakness during the first 30 min, showed somnolence and decrease of animal heat in the next 30 min; others only behaved a quiet symptom, all rats returned to normal within 1 h | LD50 cut-off ([3]; rat, in vivo, po, 300 mg/kg): greater than 2000 mg/kg B.W. | Organs index, Brain ([3]; rat, in vivo, po, 300 mg/kg): 0.74 ± 0.02 g/100 g of body weight | Organs index, Heart ([3]; rat, in vivo, po, 300 mg/kg): 0.35 ± 0.03 g/100 g of body weight | Organs index, Kidney ([3]; rat, in vivo, po, 300 mg/kg): 0.75 ± 0.06 g/100 g of body weight | Organs index, Liver ([3]; rat, in vivo, po, 300 mg/kg): 3.06 ± 0.19 g/100 g of body weight | Organs index, Lung ([3]; rat, in vivo, po, 300 mg/kg): 0.52 ± 0.02 g/100 g of body weight | Organs index, Spleen ([3]; rat, in vivo, po, 300 mg/kg): 0.25 ± 0.01 g/100 g of body weight | Organs index, Brain ([3]; rat, in vivo, po, 2000 mg/kg): 0.74 ± 0.05 g/100 g of body weight | Organs index, Heart ([3]; rat, in vivo, po, 2000 mg/kg): 0.33 ± 0.02 g/100 g of body weight | Organs index, Kidney ([3]; rat, in vivo, po, 2000 mg/kg): 0.75 ± 0.07 g/100 g of body weight | Organs index, Liver ([3]; rat, in vivo, po, 2000 mg/kg): 2.83 ± 0.09 g/100 g of body weight | Organs index, Lung ([3]; rat, in vivo, po, 2000 mg/kg): 0.51 ± 0.04 g/100 g of body weight | Organs index, Spleen ([3]; rat, in vivo, po, 2000 mg/kg): 0.25 ± 0.06 g/100 g of body weight | Mortality ([3]; rats, single oral dose 300 or 2000 mg/kg, 14-day observation): none of the rats died | Nephrotoxic effects [4]: mild nephrotoxic effects | Cytotoxicity [5]: none cytotoxic

OCc1ccc(CO)o1 [DHMF, 2,5-dihydroxymethylfuran]
IC50 at 24 h [1]: 26.6 mM | IC50 at 24 h ([2]; A549 cells): 0.697 mM | IC50 at 24 h ([2]; SGC-7901 cells): 0.33 mM | Organs index, Brain [3, 6]: 0.68 ± 0.09 g/100 g of body weight | Organs index, Heart [3, 6]: 0.32 ± 0.02 g/100 g of body weight | Organs index, Kidney [3, 6]: 0.75 ± 0.07 g/100 g of body weight | Organs index, Liver [3, 6]: 3.04 ± 0.26 g/100 g of body weight | Organs index, Lung [3, 6]: 0.47 ± 0.01 g/100 g of body weight | Organs index, Spleen [3, 6]: 0.22 ± 0.04 g/100 g of body weight | Organs index, Brain [3, 7]: 0.79 ± 0.07 g/100 g of body weight | Organs index, Heart [3, 7]: 0.32 ± 0.04 g/100 g of body weight | Organs index, Kidney [3, 7]: 0.75 ± 0.06 g/100 g of body weight | Organs index, Liver [3, 7]: 3.05 ± 0.17 g/100 g of body weight | Organs index, Lung [3, 7]: 0.49 ± 0.03 g/100 g of body weight | Organs index, Spleen [3, 7]: 0.22 ± 0.02 g/100 g of body weight | Abnormal behaviours ([3]; rats, single oral dose 300 mg/kg, first 4 h, n = 3): During the first 30 min, all rats became quitter and slightly weaker than the control, and returned to normal within 1 h | Abnormal behaviours ([3]; rats, single oral dose 2000 mg/kg, first 4 h, n = 6): In the first 30 min, all rats were more active than control, then showed lethargic and dilatoriness, yet returned to normal after 30 min | LD50 cut-off ([3]; rats, single oral dose, OECD 423 annex 2c, starting dose 300 mg/kg): greater than 2000 mg/kg B.W.
